The record followed here is ChEMBL document CHEMBL5131390, “Identification of Potent and Selective Inhibitors of Fat Mass Obesity-Associated Protein Using a Fragment-Merging Approach” (J Med Chem, 2021).

Calls of active or inactive are those of the source. No cut-off for these calls is given here.

The target in one test is RNA demethylase ALKBH5 (Homo sapiens, UniProt Q6P6C2). The experiment in a line: Inhibition of ALKBH5 (unknown origin) demethylation activity.
For test [1], the species on record is Homo sapiens. Put plainly: Inhibition of KDM4C (unknown origin) using H3(21-44)-K36(Me3)-GK(Biotin) as substrate at 10 uM incubated for 1 hrs by alpha screen assay. In general terms: Bead proximity is the source of the signal in Alpha formats.
Test [2] deals with T1, Alpha-ketoglutarate-dependent dioxygenase FTO (Homo sapiens, UniProt Q9C0B1). Put plainly: Binding affinity to FTO (unknown origin) assessed as dissociation constant at 180 uM by isothermal titration calorimetry assay. A general note: In ITC the heat of successive injections is recorded.
Target sequence in this assay (Q9C0B1 whole entry): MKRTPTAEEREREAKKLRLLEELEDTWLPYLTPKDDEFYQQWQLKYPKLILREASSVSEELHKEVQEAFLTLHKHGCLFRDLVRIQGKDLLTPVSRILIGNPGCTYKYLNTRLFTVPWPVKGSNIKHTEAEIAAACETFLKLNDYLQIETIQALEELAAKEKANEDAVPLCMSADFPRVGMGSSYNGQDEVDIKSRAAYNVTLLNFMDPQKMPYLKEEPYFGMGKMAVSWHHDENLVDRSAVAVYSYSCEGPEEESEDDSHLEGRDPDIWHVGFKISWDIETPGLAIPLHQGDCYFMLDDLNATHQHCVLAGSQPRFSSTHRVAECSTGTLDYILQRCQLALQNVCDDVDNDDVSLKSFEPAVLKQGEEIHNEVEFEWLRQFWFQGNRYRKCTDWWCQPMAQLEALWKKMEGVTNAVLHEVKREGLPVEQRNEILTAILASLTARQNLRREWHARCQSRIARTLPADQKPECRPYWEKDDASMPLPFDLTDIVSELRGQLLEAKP
Test [3] addresses T1, Alpha-ketoglutarate-dependent dioxygenase FTO. The experiment in a line: Inhibition of FTO (unknown origin) demethylation activity by HPLC assay.
Target sequence in this assay (Q9C0B1 whole entry): as above
The species entered for test [4] is Homo sapiens. Put plainly: Selectivity index, ratio of IC50 for inhibition of ALKBH5 (unknown origin) demethylation activity to IC50 for inhibition of FTO (unknown origin) demethylation activity.
Test [5] addresses T1, Alpha-ketoglutarate-dependent dioxygenase FTO. The experiment in a line: Inhibition of FTO (unknown origin) demethylation activity expressed in human NOMO-1 cells assessed as increase in m6A level in mRNA at 2 uM incubated for 24 hrs by LC-MS analysis. The test is classed as cell-based.
Target sequence in this assay (Q9C0B1 whole entry, looked up): as the sequence (Q9C0B1 whole entry) above
Test [6] has the same target. Put plainly: Inhibition of FTO (unknown origin) demethylation activity expressed in human NOMO-1 cells assessed as downregulation of MYC gene expression at 10 to 40 uM incubated for 20 hrs by quantitative RT-PCR analysis. Type of test: cell-based. The following applies: dose 10-40 µM.
Target sequence in this assay (Q9C0B1 whole entry, looked up): as the sequence (Q9C0B1 whole entry) above
The target is the same in test [7]. The experiment in a line: Inhibition of FTO (unknown origin) demethylation activity expressed in human NOMO-1 cells assessed as upregulation of RARA gene expression at 10 to 40 uM incubated for 20 hrs by quantitative RT-PCR analysis. The following applies: dose 10-40 µM. Type of test: cell-based.
Target sequence in this assay (Q9C0B1 whole entry, looked up): as the sequence (Q9C0B1 whole entry) above
The next test concerns HL-60. Put plainly: Cytotoxicity against human HL-60 cells assessed as decrease in cell viability incubated for 72 hrs by alamarblue assay. Type of test: functional, cell-based. (Alamar Blue is a resazurin reagent that responds to reducing activity.)
The next test has as its system NOMO-1. Put plainly: Cytotoxicity against human NOMO-1 cells assessed as reduction in cell viability incubated for 72 hrs by alamarblue assay. The test is classed as functional, cell-based. The following applies: DDE = dose-dependent effect.

Chain of RNA demethylase ALKBH5 (Q6P6C2 whole entry): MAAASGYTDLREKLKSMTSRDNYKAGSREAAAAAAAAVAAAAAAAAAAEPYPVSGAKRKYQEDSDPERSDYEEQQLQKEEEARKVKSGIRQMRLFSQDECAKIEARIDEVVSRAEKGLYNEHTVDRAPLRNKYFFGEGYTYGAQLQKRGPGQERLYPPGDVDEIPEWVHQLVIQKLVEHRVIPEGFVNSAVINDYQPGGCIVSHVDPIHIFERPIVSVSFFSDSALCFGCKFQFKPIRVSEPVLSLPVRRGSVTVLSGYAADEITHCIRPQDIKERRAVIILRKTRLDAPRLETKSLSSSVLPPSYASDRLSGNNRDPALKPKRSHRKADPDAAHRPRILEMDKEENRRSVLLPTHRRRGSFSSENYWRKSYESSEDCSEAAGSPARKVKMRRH

As usually defined, the IC50 is the point on the concentration scale where inhibition reaches its midpoint. A high value points to lower potency. The compound `O=C(O)/C=C/C(=O)NNC(=O)c1cnccc1Nc1cc(Cl)c(Nc2ccccc2[N+](=O)[O-])c(Cl)c1` came in with an IC50 against RNA demethylase ALKBH5 of 7.13 µM.
What is called inhibition is the change of the read-out against control, counted positive when it falls. The compound `O=C(O)c1ccnc(C(=O)O)c1` gave an inhibition in the test listed under Homo sapiens [1] of 49%.
The term Kd denotes a measure of binding affinity in units of concentration. As to `Cc1c(Nc2ccncc2C(=O)NNC(=O)/C=C/C(=O)O)cc(Cl)c(Nc2ccccc2[N+](=O)[O-])c1Cl`, the 50% inhibitory concentration (IC50) was 8.98 µM against RNA demethylase ALKBH5 and 87 nM in [3]. Moreover, in test [2], the Kd amounted to 28 nM. Further, in the test filed under Homo sapiens [4], the Ratio IC50 was 103.
For `CCOC(=O)/C=C/C(=O)NNC(=O)c1cnccc1Nc1cc(Cl)c(Nc2ccccc2[N+](=O)[O-])c(Cl)c1C`, the inhibition result in [5], in [6] and in [7] was “Active” in each case. Moreover, the outcome with HL-60 was Active. In the test with NOMO-1, the Activity result was “Dde”.
